Measured values reported in patent US20120252774A1, “STEROID TETROL SOLID STATE FORMS - 2” (priority 2010, published 2012).

Tests used:
[1] = test system: bone marrow-derived mast cells (BMMC); experiment: mast cell stimulus-coupled degranulation (release of β-glucuronidase); assay type: cell-based, Balb/C mice
Procedure: In another protocol, a population of mast cells was cultivated from murine bone marrow as follows. Briefly, bone marrows from Balb/C mice were flushed from the femur using PBS and a 27 g needle. The cells were cultured in a mixture of ⅔ RPMI-1640 with 19% FBS and cells that secreted IL-3. The bone marrow cells were allowed to differentiate for 18-25 days in the IL-3-containing mixture before being used for experiments. Bone marrow cells cultured in this manner have a phenotype similar to mucosal mast cells and are referred to as bone marrow-derived mast cells (BMMC).
The homogeneity of the in vitro propagated mast cells was checked by conventional flow cytometric techniques and staining for cell-type specific markers. Between days 14 and 21 of propagation, mature mast cells were harvested and prepared for the test cultures. The objective was to assess of the effect of compounds such as dehydroepiandrosterone on mast cell stimulus-coupled degranulation. Prepared mast cells were dispensed into test culture wells at a density of 1×10^7 cells/mL. In control cultures, mast cells were induced to degranulate after cross linking of IgE receptors with IgE antigen-antibody complexes. In parallel groups of cultures mast cells were preincubated dehydroepiandrosterone at various doses followed by activation using anti-IgE antibody. There was no detectable degranulation of mast cells as measured by release of β-glucuronidase from cytosolic storage granules of the cells in the absence of the stimulus. Introduction of anti-Ig-E receptor antibody to the cultures caused a significant release of β-glucuronidase.

[2] = test system: ovalbumin (OVA) sensitized mouse model of asthma; experiment: ovalbumin (OVA) sensitized mouse model of asthma; assay type: in vivo, BALB/c mice; settings: for IL-13: once daily subcutaneous injection, dexamethasone 5 mg/kg, triol 1 mg/mouse; for level of IL-5 in lung tissue: vehicle value stated for day 38, subcutaneous treatment
Procedure: BALB/c mice were sensitized by intraperitoneal injection with OVA (in alum adjuvant) on days 1, and 12. Airways were challenged with OVA on days 28 and 30 by delivery of OVA to the lung, or with saline. On day 31, six mice were with saline and 6 mice challenged with OVA were sacrificed and lung tissue was analyzed. The remaining animals were divided into 6 groups (6 mice per group). Groups of the mice were treated once daily by subcutaneous injection as follows. Group 1 vehicle control (0.1% carboxymethyl cellulose, 0.9% saline, 2% Tween 80, 0.05% phenol). Group 2 dexamethasone (5 mg/kg). Group 3 androstane-3α,16α,17α-triol (1 mg/mouse). Three animals in groups 1-3 were sacrificed on day 35 at 1 hr after final treatment and the remaining 3 animals in groups 1-3 were sacrificed on day 38.

[3] = day 35, 1 hr after final treatment

Row | SMILES | inhibition at 100 µM ([1]; Mus musculus, BMMC, 100 μM, pre-exposed 5 to 10 minutes before activation with anti-IgE antigen-antibody complexes) [%] | inhibition of degranulation at lower levels ([1]; levels lower than 100 μM) | degranulation on exposure to compound alone ([1]; no stimulus, release of β-glucuronidase) | IL-13 [2, 3] [pg/mL] | IL-13 ([2]; day 38) [pg/mL] | level of IL-5 in lung tissue [2] [pg/mL] | capacity to limit eosinophil burden and reduce key inflammatory mediators (IL-5, IL-13, cysteinyl leukotrienes) ([2]; OVA sensitized mice) | IL-13 increase (rebound) after treatment ([2]; compared with dexamethasone treated animals)
1 | C[C@]12CC[C@H](O)CC1=CC[C@@H]1[C@@H]2CC[C@]2(C)C(=O)CC[C@@H]12 [dehydroepiandrosterone] | ~70 | proportionately less capacity to inhibit degranulation | no measurable degranulation | – | – | – | – | –
2 | C[C@@H]1C[C@H]2[C@@H]3CCC4=CC(=O)C=C[C@]4(C)[C@@]3(F)[C@@H](O)C[C@]2(C)[C@@]1(O)C(=O)CO [dexamethasone] | – | – | – | 340 | 390 | 145 | – | –
3 | C[C@]12CC[C@H]3[C@@H](CCC4C[C@H](O)CC[C@@]43C)[C@@H]1C[C@@H](O)[C@H]2O (stereo partly drawn) [androstane-3α,16α,17α-triol] | – | – | – | 195 | 210 | 90 | limit eosinophil burden and to reduce key inflammatory mediators | did not generate an IL-13 increase
